Results taken from EPA's CvTdb concentration-time database.
Each block holds one compound with its values, some of them ahead of it.

Legend:
Rat [1] = assay: concentration in plasma after dosing; settings: 1.5 h; dosed: Primidone; 80 mg/kg; oral; Female; F344
Rat [2] = assay: concentration in plasma after dosing; settings: 0.25 h; dosed: Primidone; 30 mg/kg; oral; Female; F344
Rat [3] = assay: concentration in plasma after dosing; settings: 0.5 h; dosed: Primidone; 130 mg/kg; oral; Female; F344
Rat [4] = assay: concentration in plasma after dosing; settings: 12 h; dosed: Primidone; 80 mg/kg; oral; Female; F344
Rat [5] = assay: concentration in plasma after dosing; settings: 22 h; dosed: Primidone; 130 mg/kg; oral; Female; F344
Rat [6] = assay: concentration in plasma after dosing; settings: 0.25 h; dosed: Primidone; 30 mg/kg; oral; Female; F344; remark: listed apart in the source
Rat [7] = assay: concentration in plasma after dosing; settings: 0.5 h; dosed: Primidone; 130 mg/kg; oral; Female; F344; remark: listed apart in the source
Rat [8] = assay: concentration in plasma after dosing; settings: 12 h; dosed: Primidone; 130 mg/kg; oral; Female; F344
Rat [9] = assay: concentration in plasma after dosing; settings: dosed: 2-Hydroxy-4-methoxybenzophenone, 100 mg/kg, oral, Female, F344
Mouse [10] = assay: concentration in plasma after dosing; settings: 10 min; dosed: 2-Hydroxy-4-methoxybenzophenone; 250 mg/kg; oral; Female; B6C3F1
Mouse [11] = assay: concentration in plasma after dosing; settings: 2 h; dosed: 2-Hydroxy-4-methoxybenzophenone; 50 mg/kg; iv; Male; B6C3F1
Mouse [12] = assay: concentration in plasma after dosing; settings: 3 h; dosed: 2-Hydroxy-4-methoxybenzophenone; 250 mg/kg; oral; Female; B6C3F1
Rat [13] = assay: concentration in plasma after dosing; settings: dosed: Methyleugenol, 37 mg/kg, iv, Female, F344
Rat [14] = assay: concentration in plasma after dosing; settings: 2 min; dosed: Methyleugenol; 37 mg/kg; iv; Female; F344
Mouse [15] = assay: concentration in plasma after dosing; settings: dosed: 2,4-Dichlorophenoxyacetic acid, 2.0 mg/kg, oral, Male, B6C3F1
Rat [16] = assay: concentration in brain after dosing; settings: 1.5 h; dosed: alpha-Thujone; 25 mg/kg; oral; Male; Harlan Sprague Dawley
Rat [17] = assay: concentration in brain after dosing; settings: 2 min; dosed: alpha-Thujone; 50 mg/kg; oral; Female; Harlan Sprague Dawley
Rat [18] = assay: concentration in brain after dosing; settings: 0.5 h; dosed: alpha-Thujone; 50 mg/kg; oral; Female; Harlan Sprague Dawley
Rat [19] = assay: concentration in plasma after dosing; settings: 2 min; dosed: alpha-Thujone; 25 mg/kg; oral; Male; Harlan Sprague Dawley
Rat [20] = assay: concentration in plasma after dosing; settings: 6 h; dosed: alpha-Thujone; 25 mg/kg; oral; Male; Harlan Sprague Dawley
Rat [21] = assay: concentration in plasma after dosing; settings: 3 h; dosed: alpha-Thujone; 50 mg/kg; oral; Male; Harlan Sprague Dawley
Rat [22] = assay: concentration in plasma after dosing; settings: 2.5 h; dosed: 76231-76-0; 3.0 mg/kg; iv; Female; F344
Rat [23] = assay: concentration in brain after dosing; settings: 24 h; dosed: Perfluorohexane-1-sulphonic acid – potassium salt; 16 mg/kg; oral; Female; F344
Rat [24] = assay: concentration in liver after dosing; settings: 3 h; dosed: Perfluorohexane-1-sulphonic acid – potassium salt; 16 mg/kg; oral; Female; F344
Rat [25] = assay: concentration in brain after dosing; settings: 24 h; dosed: Perfluorohexane-1-sulphonic acid – potassium salt; 16 mg/kg; oral; Female; Harlan Sprague Dawley
Rat [26] = assay: concentration in liver after dosing; settings: 12 h; dosed: Perfluorohexane-1-sulphonic acid – potassium salt; 16 mg/kg; oral; Female; F344
Rat [27] = assay: concentration in liver after dosing; settings: 6 h; dosed: Perfluorohexane-1-sulphonic acid – potassium salt; 16 mg/kg; oral; Female; Harlan Sprague Dawley
Rat [28] = assay: concentration in kidney after dosing; settings: 1200 h; dosed: Perfluorohexane-1-sulphonic acid – potassium salt; 16 mg/kg; oral; Male; Harlan Sprague Dawley
Rat [29] = assay: concentration in kidney after dosing; settings: 3 h; dosed: Perfluorohexane-1-sulphonic acid – potassium salt; 16 mg/kg; oral; Female; F344
Rat [30] = assay: concentration in kidney after dosing; settings: 192 h; dosed: Perfluorohexane-1-sulphonic acid – potassium salt; 16 mg/kg; oral; Female; Harlan Sprague Dawley
Rat [31] = assay: concentration in kidney after dosing; settings: 3 h; dosed: Perfluorohexane-1-sulphonic acid – potassium salt; 16 mg/kg; oral; Female; Harlan Sprague Dawley
Rat [32] = assay: concentration in plasma after dosing; settings: dosed: Pyridine, 25 mg/kg, oral, Male, F344
Rat [33] = assay: concentration in plasma after dosing; settings: dosed: Pyridine, 5 mg/kg, iv, Male, F344

concentration in plasma (Rat [1]): 70300 ng/mL
concentration in plasma (Rat [2]): 12300 ng/mL
concentration in plasma (Rat [3]): 35300 ng/mL
concentration in plasma (Rat [4]): 15800 ng/mL
concentration in plasma (Rat [5]): 1700 ng/mL
concentration in plasma (Rat [6]): 15100 ng/mL
concentration in plasma (Rat [7]): 24000 ng/mL
concentration in plasma (Rat [8]): 3100 ng/mL
SMILES: CCC1(c2ccccc2)C(=O)NCNC1=O [Primidone]

concentration in plasma (Rat [9]; 10 min): 58.3 ng/mL
concentration in plasma (Rat [9]; 3 h): 67.4 ng/mL
concentration in plasma (Mouse [10]): 2990 ng/mL
concentration in plasma (Mouse [11]): 217 ng/mL
concentration in plasma (Mouse [12]): 133 ng/mL
SMILES: O=C(c1ccccc1)c1ccc(O)cc1O [2,4-Dihydroxybenzophenone]

concentration in plasma (Rat [13]; 0.5 h): 1520 ng/mL
concentration in plasma (Rat [13]; 0.75 h): 768 ng/mL
concentration in plasma (Rat [14]): 47500 ng/mL
SMILES: C=CCc1ccc(OC)c(OC)c1 [Methyleugenol]

SMILES: O=C(O)COc1ccc(Cl)cc1Cl [2,4-Dichlorophenoxyacetic acid]
concentration in plasma (Mouse [15]; 2.5 min): 6530 ng/mL
concentration in plasma (Mouse [15]; 5 min): 7270 ng/mL
concentration in plasma (Mouse [15]; 10 min): 7510 ng/mL
concentration in plasma (Mouse [15]; 0.25 h): 6770 ng/mL
concentration in plasma (Mouse [15]; 0.5 h): 6600 ng/mL
concentration in plasma (Mouse [15]; 2 h): 2620 ng/mL
concentration in plasma (Mouse [15]; 3 h): 483 ng/mL

SMILES: CC(C)[C@]12CC(=O)[C@H](C)[C@H]1C2 [alpha-Thujone]
concentration in brain (Rat [16]): 525 ng/g
concentration in brain (Rat [17]): 13.2 ng/g
concentration in brain (Rat [18]): 865 ng/g
concentration in plasma (Rat [19]): 17.8 ng/mL
concentration in plasma (Rat [20]): 83.5 ng/mL
concentration in plasma (Rat [21]): 357 ng/mL
concentration in plasma (Rat [22]): 2.88 ng/mL

SMILES: O=S(=O)([O-])C(F)(F)C(F)(F)C(F)(F)C(F)(F)C(F)(F)C(F)(F)F.[K+] [Perfluorohexane-1-sulphonic acid – potassium salt]
concentration in brain (Rat [23]): 1760 ng/g
concentration in liver (Rat [24]): 57000 ng/g
concentration in brain (Rat [25]): 743 ng/g
concentration in liver (Rat [26]): 75600 ng/g
concentration in liver (Rat [27]): 48400 ng/g
concentration in kidney (Rat [28]): 2640 ng/g
concentration in kidney (Rat [29]): 29100 ng/g
concentration in kidney (Rat [30]): 1650 ng/g
concentration in kidney (Rat [31]): 31500 ng/g

SMILES: c1ccncc1 [Pyridine]
concentration in plasma (Rat [32]; 0.5 h): 18700 ng/mL
concentration in plasma (Rat [32]; 6 h): 16200 ng/mL
concentration in plasma (Rat [33]; 0.25 h): 3670 ng/mL
concentration in plasma (Rat [33]; 6 h): 1390 ng/mL
